This is an account of results in PMC10396970, “Metal-dependent enzyme symmetry guides the biosynthetic flux of terpene precursors” (Nature Chemistry, 2023).

Each structure is given as a SMILES string.

Assay [1] addresses T1, PcIDS1 (Phaedon cochleariae, UniProt M1JS91).
T1 construct: N-terminal signal peptide (residues 1-85) removed; N-terminal His6-SUMO tag cut with Ulp1; E. coli BL21(DE3); homodimer; C-terminal residue A429
T1 sequence (M1JS91 86-429): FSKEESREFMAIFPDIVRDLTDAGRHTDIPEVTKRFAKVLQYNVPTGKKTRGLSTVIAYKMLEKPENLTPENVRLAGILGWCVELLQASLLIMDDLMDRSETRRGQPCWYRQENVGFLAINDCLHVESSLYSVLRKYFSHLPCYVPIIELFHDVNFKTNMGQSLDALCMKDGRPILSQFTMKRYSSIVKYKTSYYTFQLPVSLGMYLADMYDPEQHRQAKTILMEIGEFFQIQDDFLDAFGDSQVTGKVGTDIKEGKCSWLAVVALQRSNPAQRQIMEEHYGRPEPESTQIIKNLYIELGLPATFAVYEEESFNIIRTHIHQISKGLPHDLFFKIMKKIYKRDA
Description: thermal shift assay (Sypro Orange). The format is binding. To be noted: 5 mM MgCl2, pH 7.0.

In assay [2] the target is T1, PcIDS1. The experiment in a line: crystal structure. Type of assay: binding.

Turning to `CC(C)=CCC/C(C)=C/CC/C(C)=C/COP(=O)(O)OP(=O)(O)O` [FPP, farnesyl pyrophosphate], in assay [1], the dTm was found to be 7 °C.
For `CC(C)=CCC/C(C)=C/COP(=O)(O)OP(=O)(O)O` [GPP, geranyl pyrophosphate], the dTm in assay [1] (allylic site in the structure) stood at 17 °C. For the same molecule, the crystal structure entry in assay [2] (Mn2+, second site, allosteric) was “contains well-defined electron density for a second GPP molecule (GPPAllo; Fig. 3h)”.
For `C=C(C)CCOP(=O)(O)OP(=O)(O)O` [IPP, isopentenyl pyrophosphate], in assay [1] (allylic and homoallylic sites), the dTm amounted to 7 °C.
Turning to `O=P(O)(O)C(O)(Cn1ccnc1)P(=O)(O)O` [ZOL, zoledronic acid], in assay [1] (200 µM ligand, allylic site), the dTm turned out to be 28 °C.
With `CC(C)=CCC/C(Br)=C/COP(=O)(O)OP(=O)(O)O` [3-Br-GPP], in assay [2] (Mg2+, IPP added but not bound, allylic site), the crystal structure is on record as 3-Br-GPP mimics GPPAl coordination.
